Four compounds from the NIST ThermoML archive (doi:10.1016/j.fluid.2014.01.046) can be followed below.

A short description of series [1]: xn = mol fraction of the nth substance listed. The conditions noted are these: 298.15 K, 101 kPa, Liquid, Vibrating tube method.
For series [2] the following is noted: 298.15 K; 101.33 kPa; Liquid; Vibrating tube method.

Structures are written as SMILES. “And” between values parts separate entries of the source, which are not always exact repeats. Equal values may be shown once. Numbers after ± are expanded uncertainties.

One may read the mass density as mass per unit of volume.

As for `CN(C)C=O` [dimethylformamide] + C1CCCCC1, the mass density was found to be 773.912 ± 2 kg/m3 in series [1] (x1 = 0.0013); 774.059 ± 2 kg/m3 in series [1] (x1 = 0.0032); 774.39 ± 2 kg/m3 in series [1] (x1 = 0.00735); 774.433 ± 2 kg/m3 in series [1] (x1 = 0.00767); 774.963 ± 2 kg/m3 in series [1] (x1 = 0.0142); 775.4 ± 2 kg/m3 in series [1] (x1 = 0.0191). The mass density is 777.361 ± 2 kg/m3 in series [1] (x1 = 0.0404); 778.28 ± 2 kg/m3 and 778.287 ± 2 kg/m3 and 778.289 ± 2 kg/m3 in series [1] (x1 = 0.05); 778.816 ± 2 kg/m3 in series [1] (x1 = 0.0554); 906.747 ± 2 kg/m3 in series [1] (x1 = 0.8496); 906.951 ± 2 kg/m3 in series [1] (x1 = 0.8504); 907.513 ± 2 kg/m3 in series [1] (x1 = 0.8533). Further, the mass density in series [1] (x1 = 0.8999) is reported as 918.584 ± 2 kg/m3; in series [1] (x1 = 0.9245), 924.576 ± 2 kg/m3; in series [1] (x1 = 0.969), 935.786 ± 2 kg/m3.
Take `CN(C)C=O` [dimethylformamide]: in series [2], the mass density was 943.827 ± 2 kg/m3.
Same read-out and setting: the value for `C1CCCCC1` [cyclohexane] was 773.814 ± 2 kg/m3; that for `CCO` [ethanol] was 785.106 ± 2 kg/m3.
